Results reported in US6380181B1, “Synthetic catechol derivatives, method for production and use thereof” (priority 1996, dated 2002).
Converted amounts (≈) assume the structure as drawn. Where two headings read alike, the source gives them in different places.

Experiments:
Format in all cases: cell-based
E. coli DC0 (wild type) = assay: Agar diffusion test; conditions: concentration 100 μg/ml
[1] = system: Stenotrophomonas maltophilia GN 12873; assay: Agar diffusion test; conditions: concentration 100 μg/ml
[2] = system: Klebsiella pneumoniae SG 117; assay: Agar diffusion test; conditions: concentration 100 μg/ml
[3] = system: Stenotrophomonas maltophilia GN 12873; assay: Microdilution test (MIC)
[4] = system: Pseudomonas aeruginosa ATCC 27853 (wild type); assay: Agar diffusion test; conditions: concentration 100 μg/ml; P. aeruginosa ATCC 27853
[5] = system: E. coli DC2 (penetration mutant); conditions: concentration 100 μg/ml
[6] = system: Salmonella gallinarum ATCC 9184; conditions: concentration 100 μg/ml, Salmonella galinarum ATCC 9184
[7] = system: Pseudomonas aeruginosa SG 137 (carbenicillin-resistant); assay: Agar diffusion test; conditions: concentration 100 μg/ml, P. aeruginosa SG 137
[8] = system: Pseudomonas aeruginosa SG 137; assay: Microdilution test (MIC); conditions: P. aeruginosa SG 137
Experimental: (§1) The minimum inhibiting concentrations (MICs) were determined for the following bacterial strains: Pseudomonas aeruginosa NCTC 10701, NCTC 10662, SG 137, ATCC 27853, KW 799 WT and KW 799/61, E. coli DCO, DC2 and ATCC 25922, Serratia marcescens SG 621; Salmonella gallinarum ATCC 9184, Klebsiella pneumoniae ATCC 10031 and SG 117.

E. coli ATCC 25922 = assay: Microdilution test (MIC)
Experimental: as §1

[9] = system: Pseudomonas aeruginosa ATCC 27853; assay: Microdilution test (MIC); conditions: P. aeruginosa ATCC 27853
Experimental: as §1

[10] = system: Pseudomonas aeruginosa NCTC 10662; assay: Microdilution test (MIC); conditions: P. aeruginosa NCTC 10662
Experimental: as §1

[11] = system: Klebsiella pneumoniae ATCC 10031; assay: Microdilution test (MIC)
Experimental: as §1

[12] = system: Pseudomonas aeruginosa KW 799 WT (wild type); assay: Agar diffusion test; conditions: concentration 100 μg/ml, P. aeruginosa KW799/WT
[13] = system: Pseudomonas aeruginosa KW 799/61 (penetration mutant); conditions: concentration 100 μg/ml; P. aeruginosa KW799/61
[14] = system: Klebsiella pneumoniae ATCC 10031; assay: Agar diffusion test; conditions: concentration 100 μg/ml
[15] = system: Pseudomonas aeruginosa KW 799 WT; assay: Microdilution test (MIC); conditions: P. aeruginosa KW 799/WT
Experimental: as §1
(§2) With the test germs KW 799/WT and /61 of Pseudomonas and DCO and DC2 of E. coli, the effect of improved penetration capacity on the efficacy of the substances was investigated.

[16] = system: Pseudomonas aeruginosa KW 799/61; assay: Microdilution test (MIC)
Experimental: as §1, §2

E. coli DC0 = assay: Microdilution test (MIC); conditions: E. coli DC0
Experimental: as §1, §2

[17] = system: Serratia marcescens SG 621; assay: Microdilution test (MIC)
Experimental: as §1

E. coli DC2 = assay: microbe, parasite or virus in culture
Experimental: as §1, §2

SMILES: COC(=O)Oc1cccc(C(=O)N(C)c2ccc(C(=O)N[C@@H](C(=O)N[C@@H]3C(=O)N4[C@@H]3SC(C)(C)[C@@H]4C(=O)O)c3ccccc3)cc2)c1OC(=O)OC [Substance Na-37, N-{4-[(2,3-di-methoxycarbonyloxy-benzoyl)-methyl-amino]-benzoyl}-ampicillin]
- inhibition spot diameter in the agar diffusion test (E. coli DC0 (wild type)): 27 mm
- inhibition spot diameter in the agar diffusion test [1]: 16 mm
- inhibition spot diameter in the agar diffusion test [2]: 19 mm
- MIC values, microdilution test [3]: 6.25 µg/mL (≈ 8.51 µM)
- inhibition spot diameter in the agar diffusion test [4]: 21 mm
- inhibition spot diameter in the agar diffusion test [5]: 33 mm
- inhibition spot diameter in the agar diffusion test [6]: 29 mm
- inhibition spot diameter in the agar diffusion test [7]: 22 mm
- MIC values, microdilution test [8]: 0.4 µg/mL (≈ 0.544 µM)
- MIC values, microdilution test (E. coli ATCC 25922): 3.12 µg/mL (≈ 4.25 µM)
- MIC values, microdilution test [9]: 3.12 µg/mL (≈ 4.25 µM)
- MIC values, microdilution test [10]: 12.5 µg/mL (≈ 17 µM)
- MIC values, microdilution test [11]: 3.12 µg/mL (≈ 4.25 µM)
- inhibition spot diameter in the agar diffusion test [12]: 28 mm
- inhibition spot diameter in the agar diffusion test [13]: 35 mm
- inhibition spot diameter in the agar diffusion test [14]: 22 mm

SMILES: CC(=O)Oc1cccc(C(=O)NCCCC[C@H](NC(=O)c2cccc(OC(C)=O)c2OC(C)=O)C(=O)N[C@@H](C(=O)N[C@@H]2C(=O)N3[C@@H]2SC(C)(C)[C@@H]3C(=O)O)c2ccccc2)c1OC(C)=O [Substance 31, N-[L-2,6-bis-(2,3-diacetoxybenzoylamino)-hexanoyl]-ampicillin]
- inhibition spot diameter in the agar diffusion test (E. coli DC0 (wild type); listed as 31): 27 mm
- inhibition spot diameter in the agar diffusion test ([1]; listed as 31): 23 mm
- MIC values, microdilution test ([3]; listed as 31): 0.4 µg/mL (≈ 0.436 µM)
- MIC values, microdilution test [15]: 0.78 µg/mL (≈ 0.85 µM)
- MIC values, microdilution test [16]: 0.2 µg/mL (≈ 0.218 µM)
- MIC values, microdilution test (E. coli DC0): 12.5 µg/mL (≈ 13.6 µM)
- inhibition spot diameter in the agar diffusion test ([5]; listed as 31): 33 mm
- inhibition spot diameter in the agar diffusion test ([6]; listed as 31): 29 mm
- inhibition spot diameter in the agar diffusion test ([7]; listed as 31): 28 mm
- MIC values, microdilution test [17]: 25 µg/mL (≈ 27.2 µM)
- MIC values, microdilution test [8]: 0.1 µg/mL (≈ 0.109 µM)
- MIC values, microdilution test (E. coli ATCC 25922; listed as 31): 0.78 µg/mL (≈ 0.85 µM)
- MIC values, microdilution test ([10]; listed as 31): 6.25 µg/mL (≈ 6.81 µM)
- MIC values, microdilution test [11]: 0.4 µg/mL (≈ 0.436 µM)
- inhibition spot diameter in the agar diffusion test ([12]; listed as 31): 27 mm
- MIC values, microdilution test (E. coli DC2): 0.2 µg/mL (≈ 0.218 µM)
- inhibition spot diameter in the agar diffusion test [13]: 37 mm
